One assay has as its system endothelial cell. The following applies: Alzheimer's disease context; cited from earlier work.
The next assay deals with adipose tissue. The following applies: mice; cited from earlier work.
The test system of another assay is 4T1 tumor. Put plainly: Histopathological staining of angiogenesis markers CD31 and CD34 in 4T1 tumors of treated mice. Conditions: 4T1 tumor tissue; i.p. daily, two weeks. The class given is in vivo, BALB/c mice. On the procedure:
In vivo Tumor Growth Regression-Animal studies are conducted according to relevant national and international guidelines of the Weatherall report and Institutional Animal Care and Use Committee (IACUC) of Tehran University of Medical Sciences. The tumors induced in the female BALB/c mice (5 weeks old) are purchased from the Laboratory Animal Center of Iran Pasteur Institute and maintained under 12 h dark and light cycle. The 4T1 tumor model mouse are sterilized and established from the breast cancer bearing BALB/c mice by a standard protocol. The 4T1 tumor model mouse are prepared by cutting the tumor into pieces of <0.3 cm3. […] The tumor volume is measured every two days by a digital Vernier caliper (Mitutoyo, japan), using the following formula: v=a2×b×0.52 (where “a” is the shortest and “b” is the longest diameter).
Histopathological analyses—The excised tumor tissues are fixed in formalin (4%), embedded in paraffin, sectioned and stained against CD31, CD34, Ki-67, P53, Bcl-2 and TUNEL. […] To count microvessels of the murine breast cancer tissue, the 5 randomly selected vascularized areas are counted under scale bar 100 and 20 μm. The microvascular density (MVD) of the tumor is measured and evaluated by the standard protocol. The microvessels are manually counted on the images at scale bar of 20 μm. […]

Another assay addresses T1, bFGFR-1 (receptor) (Homo sapiens, UniProt P11362).
T1 construct: with bFGFR-1 (receptor) in Human Umbilical Vein Endothelial Cells (HUVECs); endogenous in cells; host or cells: HUVEC (Human Umbilical Vein Endothelial Cells)
As to the kind of experiment: Competitive binding assay with bFGFR-1 in HUVECs (immunofluorescence). The following applies: peptide 1000-2000 ng/ml overnight. As to the method:
Binding Assay—To assess competitive binding assay of bFGF antagonist, Human Umbilical Vein Endothelial Cells(HUVECs) are cultured in 96-well plates (5000 cells/well) with DMEM and 5% fetal bovine serum (FBS) incubated at 37° C. for overnight. After 24 h, the media in the 96-well plates is changed with DMEM without FBS and the cells are treated (except the control 96-well plates) with 1000-2000 ng/ml the peptides at 37° C. for overnight. The cells are fixed by 4% paraformaldehyde at room temperature for 5-10 min. After 5-10 minutes the cells are rinsed with phosphate buffer saline (PBS), permeabilized with PBS+0.3% Triton X-100. The […] with a mixture comprising 10% normal goat serum, bovine serum albumin (BSA) 1% PBST for 20 minutes in the room temperature. After 20 minutes the cells are subjected to anti-FGFR-1 (5000 ng/ml, Ab10646) with FITC-secondary (Ab6717) antibody and stained with propidium iodide (Sigma Aldrich, USA, P4170) (1 μg/ml) for nuclear staining. The cell-binding is analyzed by NIH Image J software.

The next assay deals with HUVECs. Put plainly: Matrigel tube formation assay, bFGF antagonist. The following applies: peptide 2000 ng/ml. In kind it is cell-based, human.
The subject of assay [1] is PI3K/AKT and MAPK/ERK1/2 pathways. As to the kind of experiment: Quantitative Western blot of PI3K/AKT and MAPK/ERK1/2 activation in 4T1 tumor extracts. In kind it is in vivo, murine. As to the method: In vivo Tumor Growth Regression-Animal studies are conducted according to relevant national and international guidelines of the Weatherall report and Institutional Animal Care and Use Committee (IACUC) of Tehran University of Medical Sciences. The tumors induced in the female BALB/c mice (5 weeks old) are purchased from the Laboratory Animal Center of Iran Pasteur Institute and maintained under 12 h dark and light cycle. The 4T1 tumor model mouse are sterilized and established from the breast cancer bearing BALB/c mice by a standard protocol. The 4T1 tumor model mouse are prepared by cutting the tumor into pieces of <0.3 cm3. The tumor pieces are subcutaneously transplanted into the left flank of the mouse under ketamine (100 mg/kg, i.p.) and xylazine (10 mg/kg, i.p.) anesthesia. The mouse carrying tumors with a tumor size reaching to 400 mm3 are randomized and divided into groups. Each group of tumor induced mice comprises 6 mouse. The first group is treated with vascular endothelial growth factor (VEGF). The second group is treated with phosphate buffer saline. The first group or treated groups receives daily 1, 2.5 and 10 mg/kg i.p. of VEGF-antagonistic peptides compared to PBS control group for two weeks. The tumor volume is measured every two days by a digital Vernier caliper (Mitutoyo, japan), using the following formula: v=a2×b×0.52 (where “a” is the shortest and “b” is the longest diameter).
The tumor tissues from control and peptide-treated (cultured cells or mice) are lysed with RIPA lysis buffer. […] Protein concentrations are assessed by Bradford assay. […]
The premium nitrocellulose western blotting membranes are washed with TBST and incubated with horseradish peroxidase-conjugated goat anti-mouse IgG secondary antibody. […] The quantitative analysis of protein expression to the reference protein, repeated at least three times, is performed using ImageJ. […]
On the technique in general: A western blot detects proteins with antibodies after separation by electrophoresis.

The subject of assay [2] is ovarian cancer cell line SKOV3. Put plainly: bFGF-induced SKOV3 proliferation assay (MTT). In kind it is cell-based, human. Conditions: for bFGF-induced proliferation of SKOV3: hr-bFGF, peptide 25-1000 ng/ml, 5-6 days. As to the method: Cell Proliferation Assay—To analyze the ability of basic fibroblast growth factor (bFGF) antagonist peptide to inhibit the bFGF-induced cell proliferation, the ovarian cell line SKOV3 is utilized. The SKOV3 cell line is found to be dependent on bFGF for cellular proliferation. For cell culture, SKOV3 cells are maintained in DMEM supplemented with 5% FBS, 1% streptomycin, penicillin, […] glutamine and is mycoplasma free.
For estimating the anti-proliferative activity of bFGF, SKOV3 is plated at 1×10^4 cell per well in a 24 well dish in 1 ml DMEM, the cells are maintained in DMEM and treated with human recombinant bFGF (hr-bFGF) (0-100 ng/ml) alone and in combination with different concentration of the antagonistic peptide (25-1000 ng/ml) every other day for total 5-6 days. The experiment is terminated when cells are in confluence. The MTT assay is performed. The absorbance is determined at 540 nm. The results are expressed as the mean of triplicate experiments (+SD). One-way analysis of variance is used to determine significance.

Setting [3] is: listed as bFGF antagonistic peptide.
The mark [4] stands for this setting: 4T1 mammary carcinoma tumor tissues.

T1 sequence (P11362 22-822): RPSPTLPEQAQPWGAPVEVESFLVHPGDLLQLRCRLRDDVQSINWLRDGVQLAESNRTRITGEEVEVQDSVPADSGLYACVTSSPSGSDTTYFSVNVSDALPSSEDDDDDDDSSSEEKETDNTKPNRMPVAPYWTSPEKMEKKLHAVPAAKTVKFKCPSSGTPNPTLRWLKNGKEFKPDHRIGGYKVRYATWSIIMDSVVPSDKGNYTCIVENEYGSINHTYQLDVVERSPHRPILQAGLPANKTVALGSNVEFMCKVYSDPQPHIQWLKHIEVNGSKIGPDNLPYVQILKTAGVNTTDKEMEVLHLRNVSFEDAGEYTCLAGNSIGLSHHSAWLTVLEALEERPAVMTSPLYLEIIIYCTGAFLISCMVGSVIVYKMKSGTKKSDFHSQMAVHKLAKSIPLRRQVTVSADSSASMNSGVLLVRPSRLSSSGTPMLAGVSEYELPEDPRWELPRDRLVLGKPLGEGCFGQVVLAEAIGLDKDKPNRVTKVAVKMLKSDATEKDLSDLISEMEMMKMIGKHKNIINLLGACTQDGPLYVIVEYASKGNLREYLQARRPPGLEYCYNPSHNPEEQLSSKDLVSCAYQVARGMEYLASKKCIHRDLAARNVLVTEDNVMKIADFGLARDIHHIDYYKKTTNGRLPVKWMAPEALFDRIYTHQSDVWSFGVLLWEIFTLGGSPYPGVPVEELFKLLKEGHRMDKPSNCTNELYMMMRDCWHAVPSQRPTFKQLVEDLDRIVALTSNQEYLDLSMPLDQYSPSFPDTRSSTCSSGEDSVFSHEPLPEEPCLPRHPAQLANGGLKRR

As to `CN(C)c1ccc(/C=C2\C(=O)Nc3ccccc32)cc1` [SU 4312], the vessel formation result in the assay with endothelial cell is listed as “could be blocked”.

For the compound `CO[C@@H]1[C@H](OC(=O)NC(=O)CCl)CC[C@]2(CO2)[C@H]1[C@@]1(C)O[C@@H]1CC=C(C)C` [TNP-470], in the assay on adipose tissue, the “diet-induced and genetic obesity” value is given as “able to prevent”; the “vascularity in the adipose tissue” value is “reduced”.

For the compound “2HN-Leu119-Lys120-Arg121-Thr122-Gly123-Gln124-Tyr125-Lys126-Leu127-COOH (H-LKRTGQYKL-OH; listed as Homo sapiens) [Seq. ID No. 5, antagonist of bFGF, residues 119-127 of bFGF]”, the “anti-angiogenic effect, staining of angiogenesis marker CD31” value with 4T1 tumor was “inhibits the angiogenesis”. The “anti-angiogenic effect, staining of angiogenesis marker CD34” value in the assay with 4T1 tumor is recorded as “inhibits the angiogenesis”. Moreover, the “binding to bFGFR-1” value with bFGFR-1 (receptor) is “recognizes bFGFR”; with bFGFR-1 (receptor) (setting [3]), “recognizes and binds”. Besides, the “anti-angiogenic activity, Matrigel assay” value in the assay on HUVECs was “inhibits the angiogenesis process”. The AKT phosphorylation entry in assay [1] (setting [4]) is “able to block”. In assay [1] (setting [4]), the ERK1/2 phosphorylation entry is “able to block”. In assay [1] (dosages 1 and 10 mg/kg), the “difference in p-AKT or p-ERK inhibition levels between dosages” value is “no significant difference”. Also, the “bFGF-induced proliferation of SKOV3” value in assay [2] was “suppressing bFGF-induced proliferation”; in assay [2] (listed as bFGF antagonist peptide), “inhibits the bFGF-induced proliferation of ovarian cancer cell line SKOV3 in a dose-dependent manner”; in assay [2] (setting [3]), “inhibit the proliferation”. In assay [2] (peptide 400 ng/ml), the “SKOV3 cell proliferation at 400 ng/ml peptide” value is “reduced”.

Source of the values: patent US10745454B2, “Method of synthesizing antagonist peptides for cell growth” (priority 2018, dated 2020).
